# Source: patent US20100190237A1, “COMPOSITIONS AND METHODS FOR STORAGE OF BACTERIAL SUSPENSIONS” (priority 2007, published 2010)
# What was measured:
# P. leiognathi = assay: ToxScreen-II toxicity assay (bacterial luminescence) with stored bacterial suspension; type: cell-based; details: light level after 30 minutes at 27° C.
# Procedure: In order to determine how long a bacterial suspension stored in a solution according to an exemplary embodiment of the invention could be useful in a toxicity assay, a toxicity assay (ToxScreen-II, CheckLight Ltd, Qiryat Tivon, Israel) was conducted repeatedly over time.
# In the assay, 0.01 mL aliquots were drawn from the bacterial suspension (P. leiognathi) in the medium at 4 time points during 30 days and incubated with chemical toxicants in assay buffer diluted in mineral water. Light level was determined after 30 minutes at 27° C.
# [1] = test system: E. coli harboring the luminescence system of V. fischeri; details: titration as in Example 6; data not shown
# Procedure: In order to determine the effect of monovalent salts on luminescence during long term storage at refrigeration temperatures, NaCl was added to medium at concentrations of 0.1, 0.5, 2.0, 3.0 and 4.5%. […] Assay of the effect of NaCl was as described in Example 1.
# [2] = test system: luminescent bacteria (e.g. Photobacterium leiognathi, Vibrio fischeri, Vibrio harveyi); assay: titration of medium components: luminescence during long term storage at refrigeration temperatures; type: cell-based; details: for range I: concentrations that provided a marked improvement over negative control / range II: concentrations that produced no negative effect relative to negative control: based on results of examples 2 through 9; for effect of antibiotic on luminescence during long term storage: antibiotic at 15 mg/L in storage solution; for concentration that slowed the reduction in luminescence better than other tested concentrations: storage at -2 to +4° C. over several weeks, other components constant as in Table 1, pH 7.2
# Procedure: In order to identify storage conditions suitable for a long term medium for a suspension of luminescent bacteria (e.g. Photobacterium leiognathi, Vibrio fischeri, Vibrio harveyi) different concentrations of monovalent salts, sugars, sources of divalent cations, protein mixtures, albumins and alcohols were tested.
# Each of the medium components (including pH) was tested separately while all other components were kept at a constant concentration as indicated in Table 1. For titration of other components pH was held constant at 7.2. The effect on bacterial luminescence of each component at each tested concentration (or pH value) was determined over a period of several weeks.
# In order to perform the titration of the medium components, a bacterial culture was spread on LA plates at about 300 colonies per plate after over night growth. Colonies were collected from plates with ASW and centrifuged (10000 g, 10 minutes, 4° C.). Harvested bacteria were resuspended in the different solutions to form experimental bacterial suspensions.
# Experimental bacterial suspensions were stored at −2° C.-+4° C. Each week an aliquot of each experimental bacterial suspension was drawn and diluted in artificial seawater (ASW: 0.5M NaCl, 50 mM MgSO47H2O, 10 mM CaCl22H2O, 10 mM KCl)) supplemented with 50 ppm yeast extract/glucose and incubated at 26° C.-28° C. Light level was recorded after 30 minutes.
Molecule,Sensitivity of P. leiognathi to various toxicants (P. leiognathi; Day 1 of storage) [mg/L],Sensitivity of P. leiognathi to various toxicants (P. leiognathi; Day 7 of storage) [mg/L],Sensitivity of P. leiognathi to various toxicants (P. leiognathi; Day 18 of storage) [mg/L],Sensitivity of P. leiognathi to various toxicants (P. leiognathi; Day 30 of storage) [mg/L],range I: concentrations that provided a marked improvement over negative control [2],range II: concentrations that produced no negative effect relative to negative control [2],further results
[Cl][Cd][Cl] [CdCl2],0.2,0.25,0.3,0.4,–,–,–
Clc1ccc(C(c2ccc(Cl)cc2)C(Cl)(Cl)Cl)cc1 [DDT],0.007,0.006,0.004,0.006,–,–,–
[K+].[K+].[O]=[Cr](=[O])([O-])[O][Cr](=[O])(=[O])[O-] [K2Cr2O7],0.5,0.7,0.5,0.6,–,–,–
[Cl-].[Na+] [NaCl],–,–,–,–,2.0-3.0%,1.0-3.0%,salt concentration determined to be useful (preserving luminescence) [1]: 0.8-0.85%
[Cl][Pb][Cl] [PbCl2],2,2.5,3,2.5,–,–,–
CC1(C)S[C@@H]2[C@H](NC(=O)[C@H](N)c3ccccc3)C(=O)N2[C@H]1C(=O)O [ampicillin],–,–,–,–,–,–,effect of antibiotic on luminescence during long term storage [2]: slowed the reduction in luminescence better than other tested antibiotics
O=C(N[C@H](CO)[C@H](O)c1ccc([N+](=O)[O-])cc1)C(Cl)Cl [chloramphenicol],–,–,–,–,–,–,effect of antibiotic on luminescence during long term storage [2]: slowed the reduction in luminescence better than other tested antibiotics
CCO [ethanol],–,–,–,–,1.0-3.5%,0.1-3.5%,concentration that slowed the reduction in luminescence better than other tested concentrations [2]: ≥ 1.5%
O[C@H]1[C@H](O)[C@@H](O)[C@H](O)[C@@H](O)[C@H]1O [inositol],–,–,–,–,5.0-7.0%,0.5-7.0%,concentration that slowed the reduction in luminescence better than other tested concentrations [2]: 5%
"[Cl-].[Cl-].[Mg+2] [magnesium, MgCl2]",–,–,–,–,1.0 to 200 mM,0.0 to 300 mM,concentration that slowed the reduction in luminescence better than other tested concentrations [2]: 200 mM
Bovine serum albumin [BSA],–,–,–,–,–,0.02-1.0%,–
